The text below walks through data of ChEMBL document CHEMBL1122352, “Synthesis and antitumor activity of 2-beta-D-ribofuranosylselenazole-4-carboxamide and related derivatives” (1983).

Format in all cases: functional
Test [1] has as its system Mus musculus. As to the kind of experiment: Evaluated for increase in life span in mice inoculated with lewis lung carcinoma at a dose of 25 mg/kg (Experiment-1).
Test [2] relates to Mus musculus. As to the kind of experiment: Evaluated for median life span in mice inoculated with lewis lung carcinoma at a dose of 1.5 mg/kg (Experiment-2).
The subject of test [3] is Mus musculus. As to the kind of experiment: Evaluated for median life span in mice inoculated with lewis lung carcinoma at a dose of 25 mg/kg (Experiment-1).
Test [4] concerns Mus musculus. The experiment in a line: Evaluated for median life span in mice inoculated with lewis lung carcinoma at a dose of 200 mg/kg (Experiment-1).
The test system of test [5] is Mus musculus. As to the kind of experiment: Evaluated for median life span in mice inoculated with lewis lung carcinoma at a dose of 24 mg/kg (Experiment-2).
Test [6] deals with Mus musculus. As to the kind of experiment: Evaluated for increase in life span in mice inoculated with lewis lung carcinoma at a dose of 3 mg/kg (Experiment-2).
The subject of test [7] is Mus musculus. The experiment in a line: Evaluated for median life span in mice inoculated with lewis lung carcinoma at a dose of 100 mg/kg (Experiment-1).
The subject of test [8] is L1210. As to the kind of experiment: Evaluated for cytotoxicity against L1210 cells. As to conditions: Mus musculus, read-out: ID50 (the source's name).
The test system of test [9] is Mus musculus. The experiment in a line: Evaluated for increase in life span in mice inoculated with lewis lung carcinoma at a dose of 24 mg/kg (Experiment-2).
Test [10] has as its system Mus musculus. As to the kind of experiment: Evaluated for median life span in mice inoculated with lewis lung carcinoma at a dose of 6 mg/kg (Experiment-2).
In test [11] the test system is Mus musculus. The experiment in a line: Evaluated for increase in life span in mice inoculated with lewis lung carcinoma at a dose of 1.5 mg/kg (Experiment-2).
Test [12] concerns Mus musculus. The experiment in a line: Evaluated for increase in life span in mice inoculated with lewis lung carcinoma at a dose of 12 mg/kg (Experiment-2).
The subject of test [13] is Mus musculus. The experiment in a line: Evaluated for increase in life span in mice inoculated with lewis lung carcinoma at a dose of 12 mg/kg (Experiment-1).
Test [14] deals with Mus musculus. As to the kind of experiment: Evaluated for median life span in mice inoculated with lewis lung carcinoma at a dose of 3 mg/kg (Experiment-2).
Test [15] deals with Mus musculus. The experiment in a line: Evaluated for median life span in mice inoculated with lewis lung carcinoma at a dose of 50 mg/kg (Experiment-1).
Test [16] has as its system Mus musculus. The experiment in a line: Evaluated for increase in life span in mice inoculated with lewis lung carcinoma at a dose of 6 mg/kg (Experiment-2).
Test [17] relates to Mus musculus. The experiment in a line: Evaluated for median life span in mice inoculated with lewis lung carcinoma at a dose of 12 mg/kg (Experiment-1).
For test [18], the system named is Mus musculus. The experiment in a line: Evaluated for increase in life span in mice inoculated with lewis lung carcinoma at a dose of 50 mg/kg (Experiment-1).
Test [19] deals with Mus musculus. The experiment in a line: Evaluated for median life span in mice inoculated with lewis lung carcinoma at a dose of 12 mg/kg (Experiment-2).
The test system of test [20] is Mus musculus. As to the kind of experiment: Evaluated for increase in life span in mice inoculated with lewis lung carcinoma at a dose of 100 mg/kg (Experiment-1).
A further test deals with P388. The experiment in a line: Evaluated for cytotoxicity against P-388 cells. To be noted: Mus musculus, read-out: ID50 (the source's name).
For test [21], the system named is Mus musculus. As to the kind of experiment: Evaluated for median life span in mice inoculated with lewis lung carcinoma at a dose of 75 mg/kg.
Test [22] has as its system Mus musculus. As to the kind of experiment: Evaluated for median life span in mice inoculated with lewis lung carcinoma at a dose of 13 mg/kg.
Test [23] deals with L1210. The experiment in a line: Evaluated for cytotoxicity to L1210 cells. As to conditions: Mus musculus, read-out: ID50 (the source's name).
Test [24] concerns Mus musculus. As to the kind of experiment: Evaluated for median life span in mice inoculated with lewis lung carcinoma at a dose of 50 mg/kg.
For test [25], the system named is Mus musculus. As to the kind of experiment: Evaluated for median life span in mice inoculated with lewis lung carcinoma at a dose of 9 mg/kg.
In test [26] the test system is Mus musculus. The experiment in a line: Evaluated for median life span in mice inoculated with lewis lung carcinoma at a dose of 20 mg/kg.
Test [27] relates to Mus musculus. The experiment in a line: Evaluated for median life span in mice inoculated with lewis lung carcinoma at a dose of 33 mg/kg.
Test [28] has as its system Mus musculus. As to the kind of experiment: Evaluated for increase in life span in mice inoculated with lewis lung carcinoma at a dose of 13 mg/kg.

For orientation: ILS means how much longer treated animals lived than controls. High values mean much gain in survival, low ones little gain in survival. In the test on Mus musculus [1], `NC(=O)c1c[se]c([C@@H]2O[C@H](CO)[C@@H](O)[C@H]2O)n1` gave an increase in life span (ILS) at 25 mg/kg of 255%. For the same compound, the MLS in the test with Mus musculus [2] amounted to 22 days; in the test on Mus musculus [3], 60 days; with Mus musculus [4] it was 10.7 days; with Mus musculus [5] it was 60 days; in the test with Mus musculus [7], 20.3 days; in the test on Mus musculus [10] it was 60 days. Besides, the MLS with Mus musculus [14] amounted to 31 days; in the test with Mus musculus [15], 60 days; in the test with Mus musculus [17], 60 days; in the test on Mus musculus [19], 60 days. In the test on Mus musculus [6], the increase in lifespan (ILS) at 3 mg/kg was 53%. Also, the results for the IC50 in the test on L1210 [8] and in the test on P388 were 400 nM and 300 nM, respectively. In addition, the ILS at 24 mg/kg with Mus musculus [9] is 197%. In the test on Mus musculus [11], this compound had an ILS at 1.5 mg/kg of 10%. Also, the ILS at 12 mg/kg in the test on Mus musculus [12] turned out to be 197%; in the test on Mus musculus [13] it was 255%. For the same compound, the ILS at 6 mg/kg with Mus musculus [16] was determined as 197%. The increase in life span (ILS) at 50 mg/kg in the test with Mus musculus [18] worked out at 255%. In the test on Mus musculus [20], this compound came in with an ILS at 100 mg/kg of 20%.

For `NC(=O)c1c[se]c([C@@H]2O[C@H](COP(=O)(O)O)[C@@H](O)[C@H]2O)n1`, the MLS came to 15.5 days with Mus musculus [21]; 60 days with Mus musculus [22]; 12.5 days in the test with Mus musculus [24]; 12.5 days in the test on Mus musculus [25]; 12 days in the test on Mus musculus [26]; 12.5 days with Mus musculus [27]. Also, the IC50 in the test on L1210 [23] is 390 nM. The compound also came in with an ILS at 13 mg/kg in the test on Mus musculus [28] of 215%.

Turning to `NC(=O)c1csc([C@@H]2O[C@H](CO)[C@@H](O)[C@H]2O)n1` [TIAZOFURIN], in the test with L1210 [8], the IC50 worked out at 1950 nM.
